Assay results: patent US7291730B2, “Pyrimidine compounds and their use” (Sumitomo Chemical Company, Limited, priority 2000, dated 2007)

Experiments:
[1] = tested on: Western Flower Thrips (Frankliniella occidentalis); test: Insecticidal test against western flower thrips, sprayed cucumber leaves (Test Example 3); type: in vivo; settings: 500 ppm, sprayed 20 ml/cup onto cucumber, thirty larvae on cut first foliage leaves, after 7 days
Experimental: A formulation of a test compound obtained in Formulation Example 5 was diluted with water so that the active ingredient concentration came to 500 ppm to prepare a test spray solution. The seeds of cucumber were planted in polyethylene cups and grown until their first foliage leaves developed, and the above test spray solution was sprayed at the rate of 20 ml/cup onto these cucumber plants. After the chemical solution sprayed onto the cucumber plants was dried, the first foliage leaves were cut off and placed on a water-containing filter paper (70 mm in diameter) in a polyethylene cup (110 mm in diameter). Thirty larvae of western flower thrips (Frankliniella occidentalis) were set free in the polyethylene cup, and the lid was put on the polyethylene cup. After 7 days, the number of surviving insects was examined.

Q: For `C#CCOc1cc(Oc2ccccc2)ncn1` [(51)], which “number of surviving insects” value [1] is on record?
A: zero

Q: With `CC#CCOc1cc(OCC#CC)ncn1` [(1)] as the compound, how does the “number of surviving insects” value [1] read?
A: zero

Q: Which “number of surviving insects” value [1] does the source give for `CC#CCOc1cc(OCC#CC(C)(C)C)ncn1` [(7)] here?
A: zero

Q: Which “number of surviving insects” value [1] does the source give for `C#CC(C)Oc1cc(-c2cccc(F)c2F)ncn1` (centres unmarked) [(134)] here?
A: zero

Q: With `CC#CCOc1cc(-c2ccccc2)ncn1` [present compound (38), 4-(2-butynyloxy)-6-phenylpyrimidine] as the compound, how does the melting point read?
A: 59.6 °C

Q: For `C#CCOc1cc(Oc2cccc(C(F)(F)F)c2)ncn1` [(17)], which “number of surviving insects” value [1] is on record?
A: zero

Q: For `C#CCOc1cc(Oc2ccccc2Cl)ncn1` [present compound (19), 4-(2-chlorophenoxy)-6-(2-propynyloxy)pyrimidine], which melting point is on record?
A: 76.2 °C

Q: With `C#CCOc1cc(Oc2cccc(C)c2)ncn1` [(29)] as the compound, how does the “number of surviving insects” value [1] read?
A: zero

Q: For `C#CCOc1cc(-c2ccccc2)nc(C)n1` [(77)], which “number of surviving insects” value [1] is on record?
A: zero

Q: With `CC#CCOc1cc(O[C@@H]2CCC[C@H]2C)ncn1` (relative stereo) [(169)] as the compound, how does the “number of surviving insects” value [1] read?
A: zero

Q: Which “number of surviving insects” value [1] does the source give for `CC#CCOc1cc(-c2ccc(F)cc2)ncn1` [(59)] here?
A: zero

Q: For `CC#CCOc1cc(Oc2ccc([N+](=O)[O-])cc2F)ncn1` [present compound (65), 4-(2-fluoro-4-nitrophenoxy)-6-(2-butynyloxy)pyrimidine], which melting point is on record?
A: 132.1 °C

Q: For `C#CCOc1cc(Oc2cc(Cl)cc(Cl)c2)ncn1` [present compound (24), 4-(3,5-dichlorophenoxy)-6-(2-propynyloxy)pyrimidine], which melting point is on record?
A: 136.5 °C

Q: With `CC#CCOc1cc(-c2cccc(F)c2F)ncn1` [(83)] as the compound, how does the “number of surviving insects” value [1] read?
A: zero

Q: For `C#CCOc1cc(Oc2ccc(Cl)c(Cl)c2)ncn1` [present compound (23), 4-(3,4-dichlorophenoxy)-6-(2-propynyloxy)pyrimidine], which melting point is on record?
A: 109.2 °C

Q: For `CC#CCOc1cc(Oc2ccc(F)cc2Cl)ncn1` [(16)], which “number of surviving insects” value [1] is on record?
A: zero

Q: With `C#CCOc1cc(-c2ccccc2)ncn1` [present compound (37), 4-phenyl-6-(2-propynyloxy)pyrimidine] as the compound, how does the melting point read?
A: 65.1 °C

Q: Which “number of surviving insects” value [1] does the source give for `C#CCOc1cc(Oc2ccc(C(F)(F)F)cc2)ncn1` [(20)] here?
A: zero

Q: Which melting point does the source give for `C#CCOc1cc(Oc2ccc(Cl)cc2Cl)ncn1` [present compound (22), 4-(2,4-dichlorophenoxy)-6-(2-propynyloxy)pyrimidine] here?
A: 106.7 °C

Q: Which “number of surviving insects” value [1] does the source give for `CC#CCOc1ncnc(Cc2ccccc2F)c1F` [(191)] here?
A: zero

Q: With `CC#CCOc1cc(Oc2cccc(F)c2)ncn1` [present compound (61), 4-(3-fluorophenoxy)-6-(2-butynyloxy)pyrimidine] as the compound, how does the melting point read?
A: 60.1 °C

Q: With `C#CCOc1cc(OCC#CC)ncn1` [(2)] as the compound, how does the “number of surviving insects” value [1] read?
A: zero

Q: For `C#CCOc1cc(Oc2c(F)cccc2F)ncn1` [(21)], which “number of surviving insects” value [1] is on record?
A: zero

Q: Which melting point does the source give for `C#CCOc1cc(Oc2ccc(F)cc2)ncn1` [present compound (35), 4-(4-fluorophenoxy)-6-(2-propynyloxy)pyrimidine] here?
A: 81.4 °C

Q: Which “number of surviving insects” value [1] does the source give for `CC#CCOc1ncnc(Oc2ccccc2F)c1F` [(183)] here?
A: zero

Q: Which melting point does the source give for `CC#CCOc1cc(Cc2c(F)cccc2F)ncn1` [present compound (80), 4-(2,6-difluorobenzyl)-6-(2-butynyloxy)pyrimidine] here?
A: 57.6 °C

Q: For `C#CCOc1cc(Oc2cccc(Cl)c2)ncn1` [present compound (15), 4-(3-chlorophenoxy)-6-(2-propynyloxy)pyrimidine], which melting point is on record?
A: 71.6 °C

Q: Which “number of surviving insects” value [1] does the source give for `C#CCOc1cc(-c2cccc(F)c2F)ncn1` [(82)] here?
A: zero

Q: With `CCC#CCOc1cc(OCC#CCC)ncn1` [(3)] as the compound, how does the “number of surviving insects” value [1] read?
A: zero

Q: Which melting point does the source give for `CC#CCOc1cc(-c2ccc(F)cc2F)ncn1` [present compound (44), 4-(2-butynyloxy)-6-(2,4-difluorophenyl)pyrimidine] here?
A: 63.9 °C

Q: For `CC#CCOc1cc(OCC#CCC)ncn1` [present compound (6), 4-(2-butynyloxy)-6-(2-pentynyloxy)pyrimidine], which melting point is on record?
A: 67.4 °C

Q: For `CC#CCOc1cc(Oc2c(F)cc(F)cc2F)ncn1` [present compound (45), 4-(2-butynyloxy)-6-(2,4,6-trifluorophenoxy)pyrimidine], which melting point is on record?
A: 60.3 °C

Q: Which “number of surviving insects” value [1] does the source give for `C#CCOc1cc(OCC#CCC)ncn1` [(5)] here?
A: zero

Q: Which “number of surviving insects” value [1] does the source give for `C#CCOc1cc(-c2ccc(F)cc2)ncn1` [(58)] here?
A: zero

Q: Which melting point does the source give for `CC#CCOc1cc(Oc2ccc(F)cc2)ncn1` [present compound (62), 4-(4-fluorophenoxy)-6-(2-butynyloxy)pyrimidine] here?
A: 115.8 °C

Q: Which melting point does the source give for `C#CCOc1cc(Oc2ccc(Cl)cc2)ncn1` [present compound (14), 4-(4-chlorophenoxy)-6-(2-propynyloxy)pyrimidine] here?
A: 100.3 °C

Q: With `CC#CCOc1cc(Oc2c(F)cc(F)cc2F)ncn1` [(45)] as the compound, how does the “number of surviving insects” value [1] read?
A: zero

Q: Which “number of surviving insects” value [1] does the source give for `C#CCOc1cc(-c2ccccc2F)ncn1` [(54)] here?
A: zero

Q: Which melting point does the source give for `CC#CCOc1cc(Oc2cccc(C#N)c2)ncn1` [present compound (40), 4-(2-butynyloxy)-6-(3-cyanophenoxy)pyrimidine] here?
A: 121.2 °C

Q: With `C#CCOc1cc(Oc2cccc(Cl)c2)ncn1` [(15)] as the compound, how does the “number of surviving insects” value [1] read?
A: zero

Q: With `CC#CCOc1cc(Oc2ccc(F)c(C(F)(F)F)c2)ncn1` [present compound (48), 4-(2-butynyloxy)-6-(4-fluoro-3-trifluoromethylphenoxy)pyrimidine] as the compound, how does the melting point read?
A: 90.1 °C

Q: Which melting point does the source give for `CC#CCOc1cc(Oc2ccc(F)c(F)c2)ncn1` [present compound (10), 4-(2-butynyloxy)-6-(3,4-difluorophenoxy)pyrimidine] here?
A: 109.7 °C

Q: Which melting point does the source give for `CC#CCOc1cc(OCc2cccc(F)c2F)ncn1` [present compound (76), 4-(2,3-difluorobenzyloxy)-6-(2-butynyloxy)pyrimidine] here?
A: 84.9 °C

Q: Which melting point does the source give for `CC#CCOc1cc(Oc2cccc(C(C)=O)c2)ncn1` [present compound (71), 4-(2-butynyloxy)-6-(3-acetylphenoxy)pyrimidine] here?
A: 94 °C

Q: With `CC#CCOc1cc(Nc2ccccc2)ncn1` [present compound (53), 4-anilino-6-(2-butynyloxy)pyrimidine] as the compound, how does the melting point read?
A: 159.3 °C

Q: With `CC#CCOc1cc(N(C)c2ccccc2)ncn1` [present compound (93), 4-(N-methyl-N-phenylamino)-6-(2-butynyloxy)pyrimidine] as the compound, how does the melting point read?
A: 57.6 °C

Q: For `CC#CCOc1cc(OC2CCCC(C)C2)ncn1` (centres unmarked) [(182)], which “number of surviving insects” value [1] is on record?
A: zero

Q: Which “number of surviving insects” value [1] does the source give for `C#CC(C)Oc1cc(-c2ccccc2F)ncn1` (centres unmarked) [(150)] here?
A: zero

Q: With `CC#CCOc1ncnc(Oc2cccc(F)c2F)c1F` [(180)] as the compound, how does the “number of surviving insects” value [1] read?
A: zero

Q: Which melting point does the source give for `C#CCOc1cc(Oc2ccc(OC)cc2)ncn1` [present compound (31), 4-(4-methoxyphenoxy)-6-(2-propynyloxy)pyrimidine] here?
A: 72 °C

Q: Which “number of surviving insects” value [1] does the source give for `C#CCOc1cc(Oc2ccccc2Cl)ncn1` [(19)] here?
A: zero

Q: With `C#CCOc1cc(Oc2ccccc2C)ncn1` [present compound (27), 4-(2-methylphenoxy)-6-(2-propynyloxy)pyrimidine] as the compound, how does the melting point read?
A: 64.8 °C

Q: Which melting point does the source give for `CC#CCOc1cc(Cc2cccc(F)c2)ncn1` [present compound (100), 4-(2-butynyloxy)-6-(3-fluorobenzyl)pyrimidine] here?
A: 51.5 °C

Q: For `CC#CCOc1cc(Cc2ccccc2F)ncn1` [(88)], which “number of surviving insects” value [1] is on record?
A: zero

Q: With `CC#CCOc1cc(Cc2c(F)cccc2F)ncn1` [(80)] as the compound, how does the “number of surviving insects” value [1] read?
A: zero

Q: For `CC#CCOc1cc(Nc2cccc(F)c2F)ncn1` [present compound (73), 4-(N-(2,3-difluorophenyl)amino)-6-(2-butynyloxy)pyrimidine], which melting point is on record?
A: 147.6 °C

Q: Which “number of surviving insects” value [1] does the source give for `CC#CCOc1cc(-c2ccccc2F)ncn1` [(55)] here?
A: zero

Q: With `CC#CCOc1cc(Oc2ccccc2F)ncn1` [(63)] as the compound, how does the “number of surviving insects” value [1] read?
A: zero

Q: For `C#CCOc1cc(Oc2c(F)cccc2F)ncn1` [present compound (21), 4-(2,6-difluorophenoxy)-6-(2-propynyloxy)pyrimidine], which melting point is on record?
A: 67.2 °C

Q: With `C#CCOc1cc(Oc2cccc(Cl)c2Cl)ncn1` [present compound (26), 4-(2,3-dichlorophenoxy)-6-(2-propynyloxy)pyrimidine] as the compound, how does the melting point read?
A: 91.9 °C

Q: For `C#CCOc1cc(Oc2ccccc2)ncn1` [present compound (51), 4-phenoxy-6-(2-propynyloxy)pyrimidine], which melting point is on record?
A: 71.1 °C

Q: Which melting point does the source give for `C#CCOc1cc(Oc2cc(Cl)ccc2Cl)ncn1` [present compound (25), 4-(2,5-dichlorophenoxy)-6-(2-propynyloxy)pyrimidine] here?
A: 87.7 °C

Q: With `CC#CCOc1cc(Oc2ccc(Cl)cc2F)ncn1` [present compound (4), 4-(2-butynyloxy)-6-(4-chloro-2-fluorophenoxy)pyrimidine] as the compound, how does the melting point read?
A: 117.7 °C

Q: For `CC#CCOc1cc(Oc2c(F)cccc2F)ncn1` [present compound (33), 4-(2-butynyloxy)-6-(2,6-difluorophenoxy)pyrimidine], which melting point is on record?
A: 79.8 °C

Q: With `C#CCOc1cc(OCC#C)ncn1` [present compound (52), 4,6-bis(2-propynyloxy)pyrimidine] as the compound, how does the melting point read?
A: 74 °C

Q: Which melting point does the source give for `CC#CCOc1cc(OCC#CC)ncn1` [present compound (1), 4,6-bis(2-butynyloxy)pyrimidine] here?
A: 82.9 °C

Q: Which melting point does the source give for `CC#CCOc1cc(Oc2ccc(C#N)cc2)ncn1` [present compound (41), 4-(2-butynyloxy)-6-(4-cyanophenoxy)pyrimidine] here?
A: 162 °C

Q: With `CC#CCOc1cc(N(C)c2cccc(F)c2F)ncn1` [present compound (66), 4-(N-methyl-N-(2,3-difluorophenyl)amino)-6-(2-butynyloxy)pyrimidine] as the compound, how does the melting point read?
A: 77.5 °C
